Earlier results, collected in patent US8377484B1, “Tumor encapsulation for prevention and treatment of metastatic cancer disease” (priority 2004, dated 2013).

Columns and labels:
[1] = tested on: human breast cancer cells
[2] = tested on: Cultured primary rat Schwann cells
[3] = tested on: differentiated C2C12 myotubes

O=c1c(-c2ccc(O)cc2)coc2cc(O)ccc12 [daidzein]
inhibition of cancer cells proliferation [1]: inhibit cancer cells proliferation

O=c1c(-c2ccc(O)cc2)coc2cc(O)cc(O)c12 [genistein, 5,7,4′-trihydroxyisoflavone]
promotion of BM competency ([2]; cell cultures of glial Schwann cells): promote BM competency
promotion of BM competency ([3]; cell cultures of differentiated myotubes): promote BM competency
inhibition of cancer cells proliferation [1]: inhibit cancer cells proliferation

EHS Laminin-1: major BM structural protein, heterotrimeric laminin from mouse EHS
concentration able to induce BM assembly ([2]; cultured cells in vitro): 2 mkg/ml
time for laminin-based BM to form on myotube surface ([3]; incubation with 5-10 microg/ml of laminin-1): ≤ 4 h
